Experimental data reported in publication PMC9960759, “Discovery of New Boswellic Acid Hybrid 1H-1,2,3-Triazoles for Diabetic Management: In Vitro and In Silico Studies” (Pharmaceuticals, 2023).
Like-named read-outs stand apart in the source and are kept apart here.

How the values were obtained:
[1] = molecular target: α-glucosidase (EC 3.2.1.20)
Procedure: The α-glucosidase (EC 3.2.1.20; Saccharomyces cerevisiae) assay was carried out using 50 mM of phosphate buffer (pH = 6.8). The test samples were dissolved in DMSO. The enzyme (1U/2mL) dissolved in phosphate buffer: 20 µL/well of enzyme, 20 µL/well of test samples, and 135 µL/well of phosphate buffer were employed in the 96-well plate. After adding all of these into the 96-well plate, followed by 15 min incubation at 37 °C, 25 µL/well of substrate para-nitro phenyl-α-D-glucopyranoside (0.7 mM) was added to the 96-well plate, and measurements were taken at 400 nm for 30 min using a spectrophotometer (xMarkTM Microplate, Bio-Rad, Hercules, CA, USA). As a control, 7% DMSO was employed. […] For mechanistic studies, a similar procedure was employed, with the addition of four different substrate concentrations: 0.1, 0.2, 0.4, and 0.8 µM. The percentage of inhibition was estimated using the following formula: % Inhibition=100×O.D. of test compound/O.D. of control−100

[2] = molecular target: α-glucosidase; assay: Kinetic (mechanistic) studies of α-glucosidase inhibition; format: biochemical, Saccharomyces cerevisiae; details: for Ki: four substrate concentrations, Lineweaver–Burk / Dixon plots; for type of inhibition: kinetic studies
Procedure: In this type of inhibition, the inhibitor binds with the active site residue of enzyme and, therefore, Vmax remains the same, with an increase in the Km. […] In this type of inhibition, both inhibitors—Vmax and Km—are affected by Vmax decreases and Km increases. […] The test samples were dissolved in DMSO. […] (B) Secondary replot of Lineweaver–Burk plot between the slopes of each Lineweaver–Burk plot vs. different concentrations of compound 6f. (C) Dixon plot of reciprocal of rate of reaction (velocities) vs. different concentrations of compound 6f. […] (B) Secondary replot of Lineweaver–Burk plot between the slopes of each Lineweaver–Burk plot vs. different concentrations of compound 7h. (C) Dixon plot of reciprocal of rate of reaction (velocities) vs. different concentrations of compound 7h.

[3] = read-out: IC50, α-glucosidase-inhibitory activity
[4] = read-out: IC50 ± µM, in vitro α-glucosidase-inhibitory activity, Table 2, substrate p-nitrophenyl-α-D-glucopyranoside 0.7 mM, pH 6.8, 37 °C

SMILES: CC(=O)O[C@@H]1CC[C@@]2(C)[C@@H](CC[C@]3(C)[C@@H]2C(=O)C=C2[C@@H]4[C@@H](C)[C@H](C)CC[C@]4(C)CC[C@]23C)[C@@]1(C)C(=O)OCn1cc(-c2ccc(Cl)cc2)nn1 [6i]
- IC50 [1, 3]: 3.06 µM
- IC50 [1, 4]: 3.06 ± 0.22 µM

SMILES: CC(=O)O[C@@H]1CC[C@@]2(C)[C@@H](CC[C@]3(C)[C@@H]2C(=O)C=C2[C@@H]4[C@@H](C)[C@H](C)CC[C@]4(C)CC[C@]23C)[C@@]1(C)C(=O)OCn1cc(-c2ccc(F)cc2)nn1 [6j]
- IC50 [1, 3]: 0.58 µM
- IC50 [1, 4]: 0.58 ± 0.04 µM

SMILES: Cc1ccccc1-c1cn(COC(=O)C2(C)C(O)CCC3(C)C2CCC2(C)C3C(=O)C=C3C4C(C)C(C)CCC4(C)CCC32C)nn1 (stereo not drawn) [7b, (4-(Ortho-tolyl)-1H-1,2,3-triazol-1-yl) Methyl 3α-hydroxy-11-oxo-urs-12-en-24-oate]
- IC50 [1, 3]: 2.11 µM
- IC50 [1, 4]: 2.11 ± 0.1 µM

SMILES: CC(=O)O[C@@H]1CC[C@@]2(C)[C@@H](CC[C@]3(C)[C@@H]2C(=O)C=C2[C@@H]4[C@@H](C)[C@H](C)CC[C@]4(C)CC[C@]23C)[C@@]1(C)C(=O)OCn1cc(-c2ccccc2C)nn1 [6b, (4-(O-tolyl)-1H-1,2,3-triazol-1-yl) Methyl 3α-acetyloxy-11-oxo-urs-12-en-24-oate]
- IC50 [1, 3]: 2.25 ± 0.1 µM
- IC50 [1, 4]: 2.25 ± 0.1 µM

SMILES: CC(=O)OC1CCC2(C)C(CCC3(C)C2C(=O)C=C2C4C(C)C(C)CCC4(C)CCC23C)C1(C)C(=O)OCn1cc(-c2ccccc2)nn1 (stereo not drawn) [6a, (4-Phenyl-1H-1,2,3-triazol-1-yl) Methyl 3α-acetyloxy-11-oxo-urs-12-en-24-oate]
- IC50 [1, 3]: 2.02 ± 0.031 µM
- IC50 [1, 4]: 2.02 ± 0.03 µM

SMILES: CC(=O)O[C@@H]1CC[C@@]2(C)[C@@H](CC[C@]3(C)[C@@H]2C(=O)C=C2[C@@H]4[C@@H](C)[C@H](C)CC[C@]4(C)CC[C@]23C)[C@@]1(C)C(=O)OCn1cc(-c2ccc(C(F)(F)F)cc2)nn1 [6k]
- IC50 [1, 3]: 1.26 µM
- IC50 [1, 4]: 1.26 ± 0.05 µM

SMILES: COc1ccccc1-c1cn(COC(=O)C2(C)C(OC(C)=O)CCC3(C)C2CCC2(C)C3C(=O)C=C3C4C(C)C(C)CCC4(C)CCC32C)nn1 (stereo not drawn) [6c, (4-(Ortho-methoxyphenyl)-1H-1,2,3-triazol-1-yl) Methyl 3α-acetyloxy-11-oxo-urs-12-en-24-oate]
- IC50 [1, 3]: 1.23 µM
- IC50 [1, 4]: 1.23 ± 0.08 µM

SMILES: CC(=O)OC1CCC2(C)C(CCC3(C)C2C(=O)C=C2C4C(C)C(C)CCC4(C)CCC23C)C1(C)C(=O)OCn1cc(-c2ccc(Br)cc2)nn1 (stereo not shown) [6h]
- IC50 [1, 3]: 0.69 µM
- IC50 [1, 4]: 0.69 ± 0.04 µM

SMILES: CC(=O)OC1CCC2(C)C(CCC3(C)C2C(=O)C=C2C4C(C)C(C)CCC4(C)CCC23C)C1(C)C(=O)OCn1cc(-c2cccc(C(F)(F)F)c2)nn1 (stereo not shown) [6f]
- Ki [2]: 840 ± 7 nM
- type of inhibition [2]: competitive
- IC50 [1, 3]: 0.22 µM
- IC50 [1, 4]: 0.22 ± 0.08 µM

SMILES: CC(=O)O[C@@H]1CC[C@@]2(C)[C@@H](CC[C@]3(C)[C@@H]2C(=O)C=C2[C@@H]4[C@@H](C)[C@H](C)CC[C@]4(C)CC[C@]23C)[C@@]1(C)C(=O)OCn1cc(-c2ccc(C(F)(F)F)cc2)nn1 [7k]
- IC50 [1, 3]: 1.39 µM
- IC50 [1, 4]: 1.39 ± 0.11 µM

SMILES: C#CCOC(=O)C1(C)C(O)CCC2(C)C1CCC1(C)C2C(=O)C=C2C3C(C)C(C)CCC3(C)CCC21C (stereo not drawn) [compound 4, (Prop-2-yne-1-yl) 3α-hydroxy-11-oxo-urs-12-en-24-oate]
- IC50 [1, 3]: 5.32 ± 0.15 µM

SMILES: CC1CCC2(C)CCC3(C)C(=CC(=O)C4C5(C)CCC(O)C(C)(C(=O)OCn6cc(-c7ccccc7)nn6)C5CCC43C)C2C1C (stereo not drawn) [7a, (4-Phenyl-1H-1,2,3-triazol-1-yl) Methyl 3α-hydroxy-11-oxo-urs-12-en-24-oate]
- IC50 [1, 3]: 2.31 µM
- IC50 [1, 4]: 2.31 ± 0.17 µM

SMILES: CC(=O)O[C@@H]1CC[C@@]2(C)[C@@H](CC[C@]3(C)[C@@H]2C(=O)C=C2[C@@H]4[C@@H](C)[C@H](C)CC[C@]4(C)CC[C@]23C)[C@@]1(C)C(=O)OCn1cc(-c2ccc(F)cc2)nn1 [7j]
- IC50 [1, 3]: 2.64 µM
- IC50 [1, 4]: 2.64 ± 0.03 µM

SMILES: CC(=O)O[C@@H]1CC[C@@]2(C)[C@@H](CC[C@]3(C)[C@@H]2C(=O)C=C2[C@@H]4[C@@H](C)[C@H](C)CC[C@]4(C)CC[C@]23C)[C@@]1(C)C(=O)OCn1cc(-c2ccc(Cl)cc2)nn1 [7i]
- IC50 [1, 3]: 3.18 µM
- IC50 [1, 4]: 3.18 ± 0.69 µM

SMILES: COc1ccc(-c2cn(COC(=O)C3(C)C(O)CCC4(C)C3CCC3(C)C4C(=O)C=C4C5C(C)C(C)CCC5(C)CCC43C)nn2)cc1 (stereo not drawn) [7e, (4-(Para-methoxyphenyl)-1H-1,2,3-triazol-1-yl) Methyl 3α-hydroxy-11-oxo-urs-12-en-24-oate]
- IC50 [1, 3]: 2.37 µM
- IC50 [1, 4]: 2.37 ± 0.07 µM

SMILES: CC(=O)O[C@@H]1CC[C@@]2(C)[C@@H](CC[C@]3(C)[C@@H]2C(=O)C=C2[C@@H]4[C@@H](C)[C@H](C)CC[C@]4(C)CC[C@]23C)[C@@]1(C)C(=O)OCn1cc(-c2cccc(Br)c2)nn1 [6g]
- Ki [2]: 840 ± 7 nM
- type of inhibition [2]: competitive
- IC50 [1, 3]: 0.78 µM
- IC50 [1, 4]: 0.78 ± 0.01 µM

SMILES: COc1ccccc1-c1cn(COC(=O)[C@@]2(C)[C@H](O)CC[C@@]3(C)[C@H]2CC[C@]2(C)[C@@H]3C(=O)C=C3[C@@H]4[C@@H](C)[C@H](C)CC[C@]4(C)CC[C@]32C)nn1 [7c, (4-(Ortho-methoxyphenyl)-1H-1,2,3-triazol-1-yl) Methyl 3α-hydroxy-11-oxo-urs-12-en-24-oate]
- IC50 [1, 3]: 2.18 µM
- IC50 [1, 4]: 2.18 ± 0.01 µM

SMILES: C[C@H]1[C@H](C)CC[C@]2(C)CC[C@]3(C)C(=CC(=O)[C@@H]4[C@@]5(C)CC[C@@H](O)[C@](C)(C(=O)OCn6cc(-c7cccc(Br)c7)nn6)[C@@H]5CC[C@]43C)[C@H]12 [7g]
- IC50 [1, 3]: 1.34 µM
- IC50 [1, 4]: 1.34 ± 0.02 µM

SMILES: C[C@H]1[C@H](C)CC[C@]2(C)CC[C@]3(C)C(=CC(=O)[C@@H]4[C@@]5(C)CC[C@@H](O)[C@](C)(C(=O)OCn6cc(-c7ccc(Br)cc7)nn6)[C@@H]5CC[C@]43C)[C@H]12 [7h]
- Ki [2]: 1180 ± 1.2 nM
- type of inhibition [2]: mixed
- IC50 [1, 3]: 0.43 µM
- IC50 [1, 4]: 0.43 ± 0.05 µM

SMILES: COc1ccc(-c2cn(COC(=O)C3(C)C(OC(C)=O)CCC4(C)C3CCC3(C)C4C(=O)C=C4C5C(C)C(C)CCC5(C)CCC43C)nn2)cc1 (stereo not drawn) [6e, (4-(Para-methoxyphenyl)-1H-1,2,3-triazol-1-yl) Methyl 3α-acetyloxy-11-oxo-urs-12-en-24-oate]
- IC50 [1, 3]: 2.01 µM
- IC50 [1, 4]: 2.01 ± 0.09 µM

SMILES: CC(=O)O[C@@H]1CC[C@@]2(C)[C@@H](CC[C@]3(C)[C@@H]2C(=O)C=C2[C@@H]4[C@@H](C)[C@H](C)CC[C@]4(C)CC[C@]23C)[C@@]1(C)C(=O)OCn1cc(-c2ccccc2C(F)(F)F)nn1 [6d]
- IC50 [1, 3]: 2.37 µM
- IC50 [1, 4]: 2.37 ± 0.11 µM

SMILES: CC1CCC2(C)CCC3(C)C(=CC(=O)C4C5(C)CCC(O)C(C)(C(=O)OCn6cc(-c7cccc(C(F)(F)F)c7)nn6)C5CCC43C)C2C1C (stereo not shown) [7f]
- IC50 [1, 3]: 2.52 µM
- IC50 [1, 4]: 2.52 ± 0.12 µM

SMILES: C#CCOC(=O)[C@]1(C)C2CC[C@]3(C)C(C(=O)C=C4[C@@H]5[C@@H](C)[C@H](C)CC[C@]5(C)CC[C@]43C)[C@@]2(C)CC[C@H]1OC(C)=O (stereo partly drawn) [compound 3, (Prop-2-yne-1-yl) 3α-acetyloxy-11-oxo-urs-12-en-24-oate]
- IC50 [1, 3]: 4.72 ± 0.52 µM

SMILES: CC(=O)O[C@@H]1CC[C@@]2(C)[C@@H](CC[C@]3(C)[C@@H]2C(=O)C=C2[C@@H]4[C@@H](C)[C@H](C)CC[C@]4(C)CC[C@]23C)[C@@]1(C)C(=O)OCn1cc(-c2ccccc2C(F)(F)F)nn1 [7d]
- IC50 [1, 3]: 2.62 µM
- IC50 [1, 4]: 2.62 ± 0.06 µM
